Test results published in patent US20230059582A1, “CANNABINOID DERIVATIVES” (CANOPY GROWTH CORPORATION, priority 2019, published 2023).
pIC50: −log10 of the molar value. Like-named read-outs stand apart in the source and are kept apart here.

Columns and labels:
human CB1 receptor = biological target: T1, human CB1 receptor (Homo sapiens, UniProt P21554); assay: CB1 radioligand competitive binding assay ([3H]CP 55,940 displacement); conditions: for Selectivity CB1: fold difference between CB1 and CB2 binding, printed in the column of the receptor with higher affinity, 1.00 in both = about the same affinity
T1 construct: host or cells: CHO-K1 (stably transfected cell line, membranes prepared in house)
T1 sequence (P21554 whole entry): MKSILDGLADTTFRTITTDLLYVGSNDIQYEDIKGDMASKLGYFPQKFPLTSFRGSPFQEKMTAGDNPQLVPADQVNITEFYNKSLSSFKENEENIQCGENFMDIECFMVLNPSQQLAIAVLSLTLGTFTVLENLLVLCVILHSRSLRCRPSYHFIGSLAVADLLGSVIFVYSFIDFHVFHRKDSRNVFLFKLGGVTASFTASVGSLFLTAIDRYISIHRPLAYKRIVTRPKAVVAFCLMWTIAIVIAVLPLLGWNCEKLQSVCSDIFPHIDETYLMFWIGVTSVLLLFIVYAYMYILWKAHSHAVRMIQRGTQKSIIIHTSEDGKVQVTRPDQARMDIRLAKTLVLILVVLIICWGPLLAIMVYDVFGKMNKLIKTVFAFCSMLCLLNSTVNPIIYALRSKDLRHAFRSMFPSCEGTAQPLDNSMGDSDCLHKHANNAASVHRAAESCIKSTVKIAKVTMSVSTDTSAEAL

human CB2 receptor = biological target: T2, human CB2 receptor (Homo sapiens, UniProt P34972); assay: CB2 radioligand competitive binding assay ([3H]CP 55,940 displacement); conditions: for Selectivity CB2: fold difference between CB1 and CB2 binding, printed in the column of the receptor with higher affinity, 1.00 in both = about the same affinity
T2 construct: host or cells: CHO-K1 (stably transfected cell line, membranes prepared in house)
T2 sequence (P34972 whole entry): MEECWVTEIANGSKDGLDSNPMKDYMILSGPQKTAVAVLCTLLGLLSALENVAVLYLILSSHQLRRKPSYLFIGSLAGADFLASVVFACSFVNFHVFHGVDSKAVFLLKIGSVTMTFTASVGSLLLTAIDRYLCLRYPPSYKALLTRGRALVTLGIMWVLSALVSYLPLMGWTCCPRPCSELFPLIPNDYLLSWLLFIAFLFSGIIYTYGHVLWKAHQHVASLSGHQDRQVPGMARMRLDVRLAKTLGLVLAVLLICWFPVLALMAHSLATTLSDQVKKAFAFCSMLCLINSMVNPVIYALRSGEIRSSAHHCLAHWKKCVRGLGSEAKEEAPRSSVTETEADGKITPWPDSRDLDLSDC
Experimental: Compounds of the present disclosure were tested for CB1 receptor binding affinity and for CB2 receptor binding affinity. As used herein, “binding affinity” is represented by the IC50 value, which was experimentally determined as described herein. The lower the IC50 value the higher the binding affinity. A compound of the present disclosure may be said to have “binding selectivity” if it has a higher binding affinity for one receptor compared to the other.
The membranes were prepared from CHO-K1 (Chinese hamster ovary) cells stably transfected with the human CB2 receptor (Cat. #ES-111-C; Perkin Elmer, Boston, Mass.). The cells were grown adherently and maintained in Ham's F12 medium containing 10% fetal bovine serum (FBS), penicillin, streptomycin and geneticin (G418) at 37° C. in a humid atmosphere of 5% CO2 following the manufacturer's instructions.
For membrane preparation the cells were washed with PBS and scraped off the plates in cold homogenization buffer (25 mM HEPES (pH 7.4), 2 mM EDTA) containing protease inhibitor cocktail (Sigma Cat. #P8340). The cell suspension was homogenized with a Pro-PK-01200D Polytron Homogenizer (Pro Scientific) and then centrifuged for 30 min at 120,000×g. The supernatant was discarded and the pellet was re-suspended in the homogenization buffer and stored at −80° C. until the time of use.
In this experiment, 3H radiolabeled CP 55,940, i.e. [3H]CP 55,940 (Perkin Elmer, Boston, Mass.), was used as a radioligand for the CB2 receptor to determine the binding affinity of compounds for the CB2 receptor (Scheme 3; above).
The competition binding experiments (single dose and dose-response) were performed by incubating 0.6 nM of [3H]CP55,940 (specific activity 101 Ci/mmol, Perkin Elmer) and different concentrations of compounds disclosed herein with membranes prepared as above from CHO-K1 cells expressing human CB2 receptor (1 μg of protein/well), 50 mM Tris-HCl (pH 7.4), 5 mM MgCl2, 1 mM CaCl2, and 2 mg/mL BSA.
For the single dose experiments, the compound stocks (usually 10 mM in DMSO) were diluted to working stocks in the binding buffer to give the final compound concentrations of 10 μM and 1 μM. For the dose-response experiments the test compounds were sequentially diluted to provide the desired concentration range for the IC50 determination. In each case the compounds were pre-incubated with the membrane for 20 min, before adding the radioligand.
After incubation with the radioligand for 60 min at 37° C., the incubation was terminated by rapid filtration of assay mixture through MultiScreen®HTS^+ 96-well filter plates (Millipore, Cat. #MSFCNXB), pre-soaked for 60 min with 50 mM Tris-HCl (pH 7.4) containing 0.33% polyethylenimine (PEI). The nonspecific binding (NSB) was determined in the presence of 10 μM unlabelled CP55,940. After drying the filter plate at 50° C. for at least 60 min, the filter-bound radioactivity was determined by scintillation spectrometry using the 1450 MicroBeta Plate Counter (Perkin Elmer, Boston, Mass.). From the dose-response experiments, the IC50 values were determined (see Table 1, CB2 IC50).
Where the test compound had about the same affinity for both receptors, this is represented by a value of 1.00 in the column for both receptors.

[1] = 0.8 nM [3H]CP 55,940, membranes from CHO-K1 cells expressing human CB1 receptor, dose-response, read-out: CB1 IC50
[2] = 0.6 nM [3H]CP 55,940, membranes from CHO-K1 cells expressing human CB2 receptor, dose-response, read-out: CB2 IC50

| Molecule | pIC50 (human CB1 receptor; [1]) | pIC50 (human CB2 receptor; [2]) | Selectivity CB2 (human CB2 receptor) [fold] | Selectivity CB1 (human CB1 receptor) [fold] | pIC50 (human CB1 receptor) | pIC50 (human CB2 receptor) |
| --- | --- | --- | --- | --- | --- | --- |
| CCCCCc1cc(OCOC(=O)OCC)c(CC=C(C)CCC=C(C)C)c(OCOC(=O)OCC)c1 [4′, ((2-(3,7-dimethylocta-2,6-dien-1-yl)-5-pentyl-1,3-phenylene)bis(oxy))bis(methylene) diethyl bis(carbonate)] | < 5.30 | 6.00 to 6.30 | 24.69 | – | – | – |
| CCCCCc1cc(OCOC(=O)C(C)(C)C)c(CC=C(C)CCC=C(C)C)c(OCOC(=O)C(C)(C)C)c1 [7′, ((2-(3,7-dimethylocta-2,6-dien-1-yl)-5-pentyl-1,3-phenylene)bis(oxy))bis(methylene) bis(2,2-dimethylpropanoate)] | < 5.30 | < 5.30 | 1.00 | 1.00 | – | – |
| CCCCCc1cc(OCOC2CCCCC2)c(CC=C(C)CCC=C(C)C)c(OCOC2CCCCC2)c1 [18′, ((((2-(3,7-dimethylocta-2,6-dien-1-yl)-5-pentyl-1,3-phenylene)bis(oxy))bis(methylene))bis(oxy))dicyclohexane] | < 5.30 | < 5.30 | 1.00 | 1.00 | – | – |
| CCCCCCC(C)(C)c1cc(OCOC(=O)C(C)(C)C)c(CC=C(C)CCC=C(C)C)c(OCOC(=O)C(C)(C)C)c1 [22′, ((2-(3,7-dimethylocta-2,6-dien-1-yl)-5-(2-methyloctan-2-yl)-1,3-phenylene)bis(oxy))bis(methylene) bis(2,2-dimethylpropanoate)] | < 5.30 | 5.30 to 6.00 | 7.14 | – | – | – |
| CCCCCc1cc(O)c(CC=C(C)CCC=C(C)C)c(OCOC(=O)OCC)c1 [Compound 4, (2-(3,7-dimethylocta-2,6-dien-1-yl)-3-hydroxy-5-pentylphenoxy)methyl ethyl carbonate] | 5.30 to 6.00 | > 6.30 | 7.82 | – | – | – |
| CCCCCc1cc(O)c(CC=C(C)CCC=C(C)C)c(OCOC(=O)C(C)(C)C)c1 [Compound 7, (2-(3,7-dimethylocta-2,6-dien-1-yl)-3-hydroxy-5-pentylphenoxy)methyl pivalate] | 6.00 to 6.30 | > 6.30 | 16.02 | – | – | – |
| CCCCCc1cc(O)c(C/C=C(\C)CCC=C(C)C)c(OCOCC)c1 [Compound 16, 2-(3,7-dimethylocta-2,6-dien-1-yl)-3-(ethoxymethoxy)-5-pentylphenol] | < 5.30 | 5.30 to 6.00 | 2.83 | – | – | – |
| CCCCCc1cc(O)c(C/C=C(\C)CCC=C(C)C)c(OCOCCOC)c1 [Compound 17, 2-(3,7-dimethylocta-2,6-dien-1-yl)-3-((2-methoxyethoxy)methoxy)-5-pentylphenol] | – | – | 4.00 | – | 5.30 to 6.00 | 5.30 to 6.00 |
| CCCCCc1cc(O)c(CC=C(C)CCC=C(C)C)c(OCOC2CCCCC2)c1 [Compound 18, 3-((cyclohexyloxy)methoxy)-2-(3,7-dimethylocta-2,6-dien-1-yl)-5-pentylphenol] | < 5.30 | > 6.30 | 28.00 | – | – | – |
| CCCc1cc(O)c(C/C=C(\C)CCC=C(C)C)c(OCOC(=O)C(C)(C)C)c1 [Compound 19, (2-(3,7-dimethylocta-2,6-dien-1-yl)-3-hydroxy-5-propylphenoxy)methyl pivalate] | 6.00 to 6.30 | > 6.30 | 3.89 | – | – | – |
| CCCc1cc(O)c(C/C=C(\C)CCC=C(C)C)c(OCOC(=O)OCC)c1 [Compound 20, (2-(3,7-dimethylocta-2,6-dien-1-yl)-3-hydroxy-5-propylphenoxy)methyl ethyl carbonate] | 5.30 to 6.00 | 5.30 to 6.00 | 1.80 | – | – | – |
| CCCCCCC(C)(C)c1cc(O)c(C/C=C(\C)CCC=C(C)C)c(OCOC(=O)OCC)c1 [Compound 21, (2-(3,7-dimethylocta-2,6-dien-1-yl)-3-hydroxy-5-(2-methyloctan-2-yl)phenoxy)methyl ethyl carbonate] | – | – | 6.92 | – | 6.00 to 6.30 | > 6.30 |
| CCCCCCC(C)(C)c1cc(O)c(CC=C(C)CCC=C(C)C)c(OCOC(=O)C(C)(C)C)c1 [Compound 22, (2-(3,7-dimethylocta-2,6-dien-1-yl)-3-hydroxy-5-(2-methyloctan-2-yl)phenoxy)methyl pivalate] | 5.30 to 6.00 | > 6.30 | 7.25 | – | – | – |
| CCCCCc1cc(O)c(C/C=C(\C)CCC=C(C)C)c(OCN(C(=O)OC)c2ccccc2)c1 [Compound 23, methyl ((2-(3,7-dimethylocta-2,6-dien-1-yl)-3-hydroxy-5-pentylphenoxy)methyl)(phenyl)carbamate] | > 6.30 | > 6.30 | 1.37 | – | – | – |
| dimethyl (((5-butyl-2-(3,7-dimethylocta-2,6-dien-1-yl)-1,3-phenylene)bis(oxy))bis(methylene)) bis(phenylcarbamate) [23′] | < 5.30 | < 5.30 | 1.88 | – | – | – |
